# Assay results from article PMC4823954, “From fighting depression to conquering tumors: a novel tricyclic thiazepine compound as a tubulin polymerization inhibitor” (Cell Death & Disease, 2016).
# Tests used:
# Assay in all cases: KINOMEscan
# Type in all cases: binding
# Conditions in all cases: read-out: % Ctrl
# TRPM6 = target: T1, TRPM6 (Homo sapiens, UniProt Q9BX84)
# T1 construct: purchased DiscoveRx KINOMEscan
# In short: (§1)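 Competition binding panel of 442 non-mutant kinases: test compound at 5 and 10 μM competed with an active-site-directed ligand for 1 h with shaking. Bound kinase was eluted with 0.5 μM ligand and quantified by qPCR; %Ctrl = (compound − positive control)/(DMSO − positive control) × 100, lower meaning tighter binding.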
# [1] = target: RPS6KA5(Kin.Dom.2-C-terminal) (Homo sapiens, UniProt O75582)
# In short: as §1
# BMPR1A = target: T2, BMPR1A (Homo sapiens, UniProt P36894)
# T2 construct: purchased DiscoveRx KINOMEscan
# In short: as §1
# IGF1R = target: T3, IGF1R (Homo sapiens, UniProt P08069)
# T3 construct: purchased DiscoveRx KINOMEscan
# In short: as §1
# FER = target: T4, FER (Homo sapiens, UniProt P16591)
# T4 construct: purchased DiscoveRx KINOMEscan
# In short: as §1
# [2] = target: T5, TYK2(JH1domain-catalytic) (Homo sapiens, UniProt P29597)
# T5 construct: TYK2(JH1domain-catalytic); purchased DiscoveRx KINOMEscan
# In short: as §1
# ITK = target: T6, ITK (Homo sapiens, UniProt Q08881)
# T6 construct: purchased DiscoveRx KINOMEscan
# In short: as §1
# IKK-alpha = target: T7, IKK-alpha (Homo sapiens, UniProt O15111)
# T7 construct: purchased DiscoveRx KINOMEscan
# In short: as §1
# ERBB3 = target: T8, ERBB3 (Homo sapiens, UniProt P21860)
# T8 construct: purchased DiscoveRx KINOMEscan
# In short: as §1
# CAMK1 = target: T9, CAMK1 (Homo sapiens, UniProt Q14012)
# T9 construct: purchased DiscoveRx KINOMEscan
# In short: as §1
# PIK3CD = target: T10, PIK3CD (Homo sapiens, UniProt O00329)
# T10 construct: purchased DiscoveRx KINOMEscan
# In short: as §1
# CAMK2B = target: T11, CAMK2B (Homo sapiens, UniProt Q13554)
# T11 construct: purchased DiscoveRx KINOMEscan
# In short: as §1
# NDR2 = target: T12, NDR2 (Homo sapiens, UniProt Q9Y2H1)
# T12 construct: purchased DiscoveRx KINOMEscan
# In short: as §1
# MKNK2 = target: T13, MKNK2 (Homo sapiens, UniProt Q9HBH9)
# T13 construct: purchased DiscoveRx KINOMEscan
# In short: as §1
# MEK6 = target: T14, MEK6 (Homo sapiens, UniProt P52564)
# T14 construct: purchased DiscoveRx KINOMEscan
# In short: as §1
# ZAP70 = target: T15, ZAP70 (Homo sapiens, UniProt P43403)
# T15 construct: purchased DiscoveRx KINOMEscan
# In short: as §1
# IKK-epsilon = target: T16, IKK-epsilon (Homo sapiens, UniProt Q14164)
# T16 construct: purchased DiscoveRx KINOMEscan
# In short: as §1
# AURKB = target: T17, AURKB (Homo sapiens, UniProt Q96GD4)
# T17 construct: purchased DiscoveRx KINOMEscan
# In short: as §1
# CAMKK1 = target: T18, CAMKK1 (Homo sapiens, UniProt Q8N5S9)
# T18 construct: purchased DiscoveRx KINOMEscan
# In short: as §1
# S6K1 = target: T19, S6K1 (Homo sapiens, UniProt P23443)
# T19 construct: purchased DiscoveRx KINOMEscan
# In short: as §1
# [3] = target: T20, RPS6KA4(Kin.Dom.1-N-terminal) (Homo sapiens, UniProt O75676)
# T20 construct: RPS6KA4(Kin.Dom.1-N-terminal); purchased DiscoveRx KINOMEscan
# In short: as §1
# CSNK2A1 = target: T21, CSNK2A1 (Homo sapiens, UniProt P68400)
# T21 construct: purchased DiscoveRx KINOMEscan
# In short: as §1
# NEK7 = target: T22, NEK7 (Homo sapiens, UniProt Q8TDX7)
# T22 construct: purchased DiscoveRx KINOMEscan
# In short: as §1
# ACVR2B = target: T23, ACVR2B (Homo sapiens, UniProt Q13705)
# T23 construct: purchased DiscoveRx KINOMEscan
# In short: as §1
# LIMK2 = target: T24, LIMK2 (Homo sapiens, UniProt P53671)
# T24 construct: purchased DiscoveRx KINOMEscan
# In short: as §1
# CLK4 = target: T25, CLK4 (Homo sapiens, UniProt Q9HAZ1)
# T25 construct: purchased DiscoveRx KINOMEscan
# In short: as §1
# MLK3 = target: T26, MLK3 (Homo sapiens, UniProt Q16584)
# T26 construct: purchased DiscoveRx KINOMEscan
# In short: as §1
# BMX = target: T27, BMX (Homo sapiens, UniProt P51813)
# T27 construct: purchased DiscoveRx KINOMEscan
# In short: as §1
# TRKA = target: T28, TRKA (Homo sapiens, UniProt P04629)
# T28 construct: purchased DiscoveRx KINOMEscan
# In short: as §1
# p38-alpha = target: T29, p38-alpha (Homo sapiens, UniProt Q16539)
# T29 construct: purchased DiscoveRx KINOMEscan
# In short: as §1
# T18 sequence (Q8N5S9 whole entry): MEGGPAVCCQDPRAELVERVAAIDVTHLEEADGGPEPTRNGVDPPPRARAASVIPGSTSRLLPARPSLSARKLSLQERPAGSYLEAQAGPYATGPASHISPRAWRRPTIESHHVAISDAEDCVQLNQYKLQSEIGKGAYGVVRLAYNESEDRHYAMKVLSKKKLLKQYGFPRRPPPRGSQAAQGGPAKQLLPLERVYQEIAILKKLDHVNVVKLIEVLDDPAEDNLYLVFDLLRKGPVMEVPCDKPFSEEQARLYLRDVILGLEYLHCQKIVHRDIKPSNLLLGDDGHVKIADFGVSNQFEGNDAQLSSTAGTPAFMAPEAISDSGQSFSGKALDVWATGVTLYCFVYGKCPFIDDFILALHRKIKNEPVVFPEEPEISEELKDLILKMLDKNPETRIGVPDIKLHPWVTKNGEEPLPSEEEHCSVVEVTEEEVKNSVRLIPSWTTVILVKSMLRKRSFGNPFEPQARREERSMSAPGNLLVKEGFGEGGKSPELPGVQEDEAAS
# T6 sequence (Q08881 whole entry): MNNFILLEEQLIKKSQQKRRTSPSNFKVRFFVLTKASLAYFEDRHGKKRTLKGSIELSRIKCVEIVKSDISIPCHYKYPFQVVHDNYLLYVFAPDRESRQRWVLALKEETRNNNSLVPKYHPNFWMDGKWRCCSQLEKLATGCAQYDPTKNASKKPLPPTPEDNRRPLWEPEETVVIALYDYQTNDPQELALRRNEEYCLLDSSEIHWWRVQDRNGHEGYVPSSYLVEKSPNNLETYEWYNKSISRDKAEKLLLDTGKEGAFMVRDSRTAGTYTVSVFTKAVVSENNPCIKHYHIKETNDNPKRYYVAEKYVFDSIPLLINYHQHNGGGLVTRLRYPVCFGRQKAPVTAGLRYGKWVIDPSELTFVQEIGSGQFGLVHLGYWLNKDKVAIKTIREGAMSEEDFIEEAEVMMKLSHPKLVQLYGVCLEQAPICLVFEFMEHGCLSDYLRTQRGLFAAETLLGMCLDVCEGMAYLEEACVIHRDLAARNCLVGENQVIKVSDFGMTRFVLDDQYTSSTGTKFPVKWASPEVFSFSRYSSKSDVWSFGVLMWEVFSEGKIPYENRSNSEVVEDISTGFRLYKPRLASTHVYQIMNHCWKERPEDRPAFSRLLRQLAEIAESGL
# T21 sequence (P68400 whole entry): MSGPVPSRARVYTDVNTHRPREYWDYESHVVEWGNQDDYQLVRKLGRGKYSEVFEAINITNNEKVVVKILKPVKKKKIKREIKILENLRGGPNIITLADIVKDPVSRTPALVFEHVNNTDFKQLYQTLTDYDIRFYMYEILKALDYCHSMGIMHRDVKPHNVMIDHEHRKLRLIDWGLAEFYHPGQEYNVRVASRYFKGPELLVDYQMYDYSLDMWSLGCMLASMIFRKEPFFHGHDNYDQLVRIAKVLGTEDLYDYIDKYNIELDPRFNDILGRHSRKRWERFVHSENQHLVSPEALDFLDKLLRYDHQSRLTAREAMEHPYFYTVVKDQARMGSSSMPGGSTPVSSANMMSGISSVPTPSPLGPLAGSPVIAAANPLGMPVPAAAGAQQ
# T8 sequence (P21860 20-1342): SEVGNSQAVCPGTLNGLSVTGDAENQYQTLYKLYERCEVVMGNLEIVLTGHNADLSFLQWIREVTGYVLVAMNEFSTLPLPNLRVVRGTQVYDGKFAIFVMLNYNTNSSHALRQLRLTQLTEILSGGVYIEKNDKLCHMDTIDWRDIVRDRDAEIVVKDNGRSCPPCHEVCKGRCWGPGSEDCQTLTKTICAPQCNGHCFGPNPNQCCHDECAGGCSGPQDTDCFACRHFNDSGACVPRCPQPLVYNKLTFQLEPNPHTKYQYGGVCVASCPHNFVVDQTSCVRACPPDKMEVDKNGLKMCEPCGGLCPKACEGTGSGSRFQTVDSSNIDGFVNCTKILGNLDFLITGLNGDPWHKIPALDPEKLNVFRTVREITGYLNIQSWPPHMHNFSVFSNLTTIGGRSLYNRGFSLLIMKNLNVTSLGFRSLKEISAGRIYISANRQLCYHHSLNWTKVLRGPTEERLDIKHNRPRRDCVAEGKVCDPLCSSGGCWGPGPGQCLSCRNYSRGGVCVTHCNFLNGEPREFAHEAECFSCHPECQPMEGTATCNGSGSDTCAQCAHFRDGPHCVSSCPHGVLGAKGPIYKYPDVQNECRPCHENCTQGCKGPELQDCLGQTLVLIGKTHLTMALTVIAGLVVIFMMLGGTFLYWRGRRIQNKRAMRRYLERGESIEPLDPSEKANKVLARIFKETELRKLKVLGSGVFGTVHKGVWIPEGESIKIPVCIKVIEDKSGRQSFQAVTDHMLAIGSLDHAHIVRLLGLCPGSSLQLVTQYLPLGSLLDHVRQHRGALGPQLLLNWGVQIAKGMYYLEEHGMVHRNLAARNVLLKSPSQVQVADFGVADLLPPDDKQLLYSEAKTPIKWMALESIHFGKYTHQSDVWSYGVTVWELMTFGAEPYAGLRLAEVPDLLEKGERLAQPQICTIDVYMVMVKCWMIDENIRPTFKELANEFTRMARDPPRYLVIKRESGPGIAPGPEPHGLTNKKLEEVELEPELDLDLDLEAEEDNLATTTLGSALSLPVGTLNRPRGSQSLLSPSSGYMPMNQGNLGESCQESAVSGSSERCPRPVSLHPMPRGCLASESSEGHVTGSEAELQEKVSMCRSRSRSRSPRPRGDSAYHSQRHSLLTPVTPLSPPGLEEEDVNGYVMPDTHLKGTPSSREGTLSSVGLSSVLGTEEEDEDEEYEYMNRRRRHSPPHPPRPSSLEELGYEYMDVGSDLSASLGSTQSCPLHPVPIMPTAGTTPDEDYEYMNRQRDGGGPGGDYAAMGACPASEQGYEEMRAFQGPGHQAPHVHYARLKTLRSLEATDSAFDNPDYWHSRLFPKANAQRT
# T17 sequence (Q96GD4 whole entry): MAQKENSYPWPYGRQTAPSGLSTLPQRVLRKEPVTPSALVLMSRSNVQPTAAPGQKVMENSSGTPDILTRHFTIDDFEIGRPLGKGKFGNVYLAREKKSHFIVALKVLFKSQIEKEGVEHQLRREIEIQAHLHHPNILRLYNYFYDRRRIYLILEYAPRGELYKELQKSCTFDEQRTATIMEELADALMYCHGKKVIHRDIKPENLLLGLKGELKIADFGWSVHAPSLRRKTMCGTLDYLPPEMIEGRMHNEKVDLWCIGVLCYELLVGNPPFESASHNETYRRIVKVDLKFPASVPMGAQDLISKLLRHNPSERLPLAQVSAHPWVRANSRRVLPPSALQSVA
# T20 sequence (O75676 1-371 limits assumed): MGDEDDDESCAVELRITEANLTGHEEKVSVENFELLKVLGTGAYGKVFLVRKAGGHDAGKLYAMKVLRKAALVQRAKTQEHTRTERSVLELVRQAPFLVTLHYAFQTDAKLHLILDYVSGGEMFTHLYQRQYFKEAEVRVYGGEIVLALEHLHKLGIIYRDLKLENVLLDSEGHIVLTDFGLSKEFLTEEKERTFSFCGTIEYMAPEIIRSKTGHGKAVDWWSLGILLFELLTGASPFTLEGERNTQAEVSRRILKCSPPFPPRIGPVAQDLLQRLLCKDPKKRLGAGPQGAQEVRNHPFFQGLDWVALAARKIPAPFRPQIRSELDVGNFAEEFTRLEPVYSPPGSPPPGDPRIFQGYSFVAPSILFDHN
# T2 sequence (P36894 24-532): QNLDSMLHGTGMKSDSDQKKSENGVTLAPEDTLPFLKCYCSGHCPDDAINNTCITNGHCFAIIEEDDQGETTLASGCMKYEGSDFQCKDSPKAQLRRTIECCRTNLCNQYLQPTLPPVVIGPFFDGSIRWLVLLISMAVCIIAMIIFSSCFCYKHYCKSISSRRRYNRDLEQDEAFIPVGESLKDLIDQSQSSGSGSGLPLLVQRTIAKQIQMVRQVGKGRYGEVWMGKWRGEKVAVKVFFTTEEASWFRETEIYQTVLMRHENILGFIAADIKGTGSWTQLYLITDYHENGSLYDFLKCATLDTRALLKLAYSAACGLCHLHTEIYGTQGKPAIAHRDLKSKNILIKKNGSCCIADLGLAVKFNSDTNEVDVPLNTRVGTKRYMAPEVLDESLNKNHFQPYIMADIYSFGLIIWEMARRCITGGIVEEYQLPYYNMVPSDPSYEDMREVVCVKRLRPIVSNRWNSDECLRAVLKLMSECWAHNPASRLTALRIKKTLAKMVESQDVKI
# T24 sequence (P53671 whole entry): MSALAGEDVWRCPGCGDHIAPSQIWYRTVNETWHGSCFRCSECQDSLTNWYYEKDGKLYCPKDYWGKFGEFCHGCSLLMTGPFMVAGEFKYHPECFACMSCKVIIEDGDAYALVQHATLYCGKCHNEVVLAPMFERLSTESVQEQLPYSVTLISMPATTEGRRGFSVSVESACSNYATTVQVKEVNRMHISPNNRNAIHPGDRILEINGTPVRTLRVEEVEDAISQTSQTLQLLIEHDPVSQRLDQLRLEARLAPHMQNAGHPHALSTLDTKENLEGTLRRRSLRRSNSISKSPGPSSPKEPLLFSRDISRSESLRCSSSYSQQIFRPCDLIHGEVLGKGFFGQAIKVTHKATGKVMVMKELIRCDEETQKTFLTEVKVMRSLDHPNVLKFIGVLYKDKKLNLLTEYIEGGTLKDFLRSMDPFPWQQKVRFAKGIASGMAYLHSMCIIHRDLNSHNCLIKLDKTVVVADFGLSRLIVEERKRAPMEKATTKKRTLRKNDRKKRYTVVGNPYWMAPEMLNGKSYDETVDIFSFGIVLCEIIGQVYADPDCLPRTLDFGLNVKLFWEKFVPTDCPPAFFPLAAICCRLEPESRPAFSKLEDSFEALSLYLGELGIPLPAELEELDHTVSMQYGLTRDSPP
# T22 sequence (Q8TDX7 whole entry): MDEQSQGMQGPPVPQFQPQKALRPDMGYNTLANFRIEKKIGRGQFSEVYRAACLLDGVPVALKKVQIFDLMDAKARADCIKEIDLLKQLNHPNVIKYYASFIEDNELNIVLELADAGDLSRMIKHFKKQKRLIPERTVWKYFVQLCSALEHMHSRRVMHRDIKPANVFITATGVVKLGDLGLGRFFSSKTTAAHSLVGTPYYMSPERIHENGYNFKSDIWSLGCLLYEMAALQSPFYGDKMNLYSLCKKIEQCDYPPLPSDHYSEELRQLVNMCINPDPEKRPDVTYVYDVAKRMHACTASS
smiles,measurement,setting,value
"Cc1ccc(C2=Nc3cccnc3S(=O)(=O)c3ccccc32)cc1 [TBPT, 6-(p-tolyl)benzo[f] pyrido[2,3-b][1,4] thiazepine 11,11-dioxide]",remaining binding at 5 µM,TRPM6; 5 μM,100%
same,remaining binding at 10 µM,TRPM6; 10 μM,85%
same,remaining binding at 5 µM,[1]; 5 μM,100%
same,remaining binding at 10 µM,[1]; 10 μM,93%
same,remaining binding at 5 µM,BMPR1A; 5 μM,97%
same,remaining binding at 10 µM,BMPR1A; 10 μM,80%
same,remaining binding at 5 µM,IGF1R; 5 μM,100%
same,remaining binding at 10 µM,IGF1R; 10 μM,79%
same,remaining binding at 5 µM,FER; 5 μM,93%
same,remaining binding at 10 µM,FER; 10 μM,100%
same,remaining binding at 5 µM,[2]; 5 μM,69%
same,remaining binding at 10 µM,[2]; 10 μM,100%
same,remaining binding at 5 µM,ITK; 5 μM,100%
same,remaining binding at 10 µM,ITK; 10 μM,90%
same,remaining binding at 5 µM,IKK-alpha; 5 μM,56%
same,remaining binding at 10 µM,IKK-alpha; 10 μM,75%
same,remaining binding at 5 µM,ERBB3; 5 μM,45%
same,remaining binding at 10 µM,ERBB3; 10 μM,100%
same,remaining binding at 5 µM,CAMK1; 5 μM,96%
same,remaining binding at 10 µM,CAMK1; 10 μM,98%
same,remaining binding at 5 µM,PIK3CD; 5 μM,94%
same,remaining binding at 10 µM,PIK3CD; 10 μM,100%
same,remaining binding at 5 µM,CAMK2B; 5 μM,100%
same,remaining binding at 10 µM,CAMK2B; 10 μM,100%
same,remaining binding at 5 µM,NDR2; 5 μM,100%
same,remaining binding at 10 µM,NDR2; 10 μM,100%
same,remaining binding at 5 µM,MKNK2; 5 μM,100%
same,remaining binding at 10 µM,MKNK2; 10 μM,96%
same,remaining binding at 5 µM,MEK6; 5 μM,83%
same,remaining binding at 10 µM,MEK6; 10 μM,100%
same,remaining binding at 5 µM,ZAP70; 5 μM,100%
same,remaining binding at 10 µM,ZAP70; 10 μM,99%
same,remaining binding at 5 µM,IKK-epsilon; 5 μM,80%
same,remaining binding at 10 µM,IKK-epsilon; 10 μM,100%
same,remaining binding at 5 µM,AURKB; 5 μM,98%
same,remaining binding at 10 µM,AURKB; 10 μM,92%
same,remaining binding at 5 µM,CAMKK1; 5 μM,100%
same,remaining binding at 10 µM,CAMKK1; 10 μM,92%
same,remaining binding at 5 µM,S6K1; 5 μM,100%
same,remaining binding at 10 µM,S6K1; 10 μM,88%
same,remaining binding at 5 µM,[3]; 5 μM,75%
same,remaining binding at 10 µM,[3]; 10 μM,100%
same,remaining binding at 5 µM,CSNK2A1; 5 μM,100%
same,remaining binding at 10 µM,CSNK2A1; 10 μM,84%
same,remaining binding at 5 µM,NEK7; 5 μM,100%
same,remaining binding at 10 µM,NEK7; 10 μM,89%
same,remaining binding at 5 µM,ACVR2B; 5 μM,87%
same,remaining binding at 10 µM,ACVR2B; 10 μM,82%
same,remaining binding at 5 µM,LIMK2; 5 μM,91%
same,remaining binding at 10 µM,LIMK2; 10 μM,100%
same,remaining binding at 5 µM,CLK4; 5 μM,93%
same,remaining binding at 10 µM,CLK4; 10 μM,96%
same,remaining binding at 5 µM,MLK3; 5 μM,87%
same,remaining binding at 10 µM,MLK3; 10 μM,100%
same,remaining binding at 5 µM,BMX; 5 μM,92%
same,remaining binding at 10 µM,BMX; 10 μM,93%
same,remaining binding at 5 µM,TRKA; 5 μM,100%
same,remaining binding at 10 µM,TRKA; 10 μM,97%
same,remaining binding at 5 µM,p38-alpha; 5 μM,63%
same,remaining binding at 10 µM,p38-alpha; 10 μM,100%
